From ChEMBL document CHEMBL1201861, “Genomics of Drug Sensitity in Cancer screening data, Wellcome Trust Sanger Institute”

Columns and labels:
COLO-741 = assay: cells; assay type: functional, cell-based, Homo sapiens; conditions: Homo sapiens, COLO-741
Description: SANGER: Inhibition of human COLO-741 cell growth in a cell viability assay.

Ca-Ski = assay: cells; assay type: functional, cell-based, Homo sapiens; conditions: Homo sapiens, Ca-Ski;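 also: cell viability assay measuring inhibition of Ca-Ski cell growth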
Description: SANGER: Inhibition of human Ca-Ski cell growth in a cell viability assay.

Detroit 562 = assay: cells; assay type: functional, cell-based, Homo sapiens; conditions: Homo sapiens, Detroit 562;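 also: growth inhibition of human Detroit 562 cells, read out by a cell viability assay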
Description: SANGER: Inhibition of human Detroit562 cell growth in a cell viability assay.

DoTc2-4510 = assay: cells; assay type: functional, cell-based, Homo sapiens; conditions: Homo sapiens, DoTc2-4510
G-361 = assay: cells; assay type: functional, cell-based, Homo sapiens; conditions: Homo sapiens, G-361
GAMG = assay: cells; assay type: functional, cell-based, Homo sapiens; conditions: Homo sapiens, GAMG;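 also: cell growth inhibition measured by a viability assay in the GAMG human cell line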
Description: SANGER: Inhibition of human GAMG cell growth in a cell viability assay.

HCC70 = assay: cells; assay type: functional, cell-based, Homo sapiens; conditions: Homo sapiens, HCC70;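 also: cell viability assay measuring how strongly the compound suppresses proliferation of HCC70 cells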
Description: SANGER: Inhibition of human HCC70 cell growth in a cell viability assay.

HCT-15 = assay: cells; assay type: functional, cell-based, Homo sapiens; conditions: Homo sapiens, HCT-15;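 also: cell viability readout, IC50 reflecting suppression of HCT-15 cell growth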
Description: SANGER: Inhibition of human HCT-15 cell growth in a cell viability assay.

HPAF-II = assay: cells; assay type: functional, cell-based, Homo sapiens; conditions: Homo sapiens, HPAF-II;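 also: growth inhibition of HPAF-II cells, read out with a cell viability assay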
Description: SANGER: Inhibition of human HPAF-II cell growth in a cell viability assay.

HSC-2 = assay: cells; assay type: functional, cell-based, Homo sapiens; conditions: Homo sapiens, HSC-2;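 also: growth inhibition of human HSC-2 cells, read out by a cell viability assay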
Description: SANGER: Inhibition of human HSC-2 cell growth in a cell viability assay.

KYSE-140 = assay: cells; assay type: functional, cell-based, Homo sapiens; conditions: Homo sapiens, KYSE-140;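 also: cell viability assay measuring growth inhibition in human KYSE-140 cells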
Description: SANGER: Inhibition of human KYSE-140 cell growth in a cell viability assay.

L-540 = assay: cells; assay type: functional, cell-based, Homo sapiens; conditions: Homo sapiens, L-540;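 also: growth inhibition of the human L-540 cell line, read out with a viability assay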
Description: SANGER: Inhibition of human L-540 cell growth in a cell viability assay.

LN-405 = assay: cells; assay type: functional, cell-based, Homo sapiens; conditions: Homo sapiens, LN-405
Description: SANGER: Inhibition of human LN-405 cell growth in a cell viability assay.

MDA-MB-415 = assay: cells; assay type: functional, cell-based, Homo sapiens; conditions: Homo sapiens, MDA-MB-415
MFE-280 = assay: cells; assay type: functional, cell-based, Homo sapiens; conditions: Homo sapiens, MFE-280;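 also: growth inhibition of MFE-280 cells, determined with a cell viability readout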
Description: SANGER: Inhibition of human MFE-280 cell growth in a cell viability assay.

MIA PaCa-2 = assay: cells; assay type: functional, cell-based, Homo sapiens; conditions: Homo sapiens, MIA PaCa-2;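 also: growth inhibition of MIA PaCa-2 cells, read out with a cell viability assay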
Description: SANGER: Inhibition of human MIA-PaCa-2 cell growth in a cell viability assay.

MeWo = assay: cells; assay type: functional, cell-based, Homo sapiens; conditions: Homo sapiens, MeWo;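 also: growth inhibition of MeWo cells, determined by a cell viability readout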
Description: SANGER: Inhibition of human Mewo cell growth in a cell viability assay.

NCCIT = assay: SANGER: Inhibition of human NCCIT cell growth in a cell viability assay.; assay type: functional, cell-based; conditions: Homo sapiens, NCCIT
NCI-H1694 = assay: cells; assay type: functional, cell-based, Homo sapiens; conditions: Homo sapiens, NCI-H1694;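 also: cell viability assay measuring inhibition of growth in human NCI-H1694 cells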
Description: SANGER: Inhibition of human NCI-H1694 cell growth in a cell viability assay.

NCI-H1882 = assay: cells; assay type: functional, cell-based, Homo sapiens; conditions: Homo sapiens, NCI-H1882;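 also: growth inhibition of the cell line, determined with a viability assay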
Description: SANGER: Inhibition of human NCI-H1882 cell growth in a cell viability assay.

NCI-H1963 = assay: cells; assay type: functional, cell-based, Homo sapiens; conditions: Homo sapiens, NCI-H1963;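 also: cell growth inhibition of the human line, determined with a cell viability assay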
Description: SANGER: Inhibition of human NCI-H1963 cell growth in a cell viability assay.

NCI-H2170 = assay: cells; assay type: functional, cell-based, Homo sapiens; conditions: Homo sapiens, NCI-H2170;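 also: cell viability assay measuring growth inhibition of human NCI-H2170 cancer cells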
Description: SANGER: Inhibition of human NCI-H2170 cell growth in a cell viability assay.

NCI-H2228 = assay: cells; assay type: functional, cell-based, Homo sapiens; conditions: Homo sapiens, NCI-H2228;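 also: growth inhibition of human NCI-H2228 cells, read out by a cell viability assay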
Description: SANGER: Inhibition of human NCI-H2228 cell growth in a cell viability assay.

NCI-H520 = assay: cells; assay type: functional, cell-based, Homo sapiens; conditions: Homo sapiens, NCI-H520;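 also: growth inhibition of NCI-H520 cells, measured by a cell viability assay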
Description: SANGER: Inhibition of human NCI-H520 cell growth in a cell viability assay.

NCI-H524 = assay: cells; assay type: functional, cell-based, Homo sapiens; conditions: Homo sapiens, NCI-H524;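 also: growth inhibition of human NCI-H524 cells, read out through a cell viability assay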
Description: SANGER: Inhibition of human NCI-H524 cell growth in a cell viability assay.

NCI-H596 = assay: cells; assay type: functional, cell-based, Homo sapiens; conditions: Homo sapiens, NCI-H596;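 also: growth inhibition of NCI-H596 cells, read out with a cell viability assay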
Description: SANGER: Inhibition of human NCI-H596 cell growth in a cell viability assay.

NCI-H650 = assay: cells; assay type: functional, cell-based, Homo sapiens; conditions: Homo sapiens, NCI-H650;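 also: growth inhibition of NCI-H650 cells, read out by a viability assay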
Description: SANGER: Inhibition of human NCI-H650 cell growth in a cell viability assay.

NCI-H716 = assay: cells; assay type: functional, cell-based, Homo sapiens; conditions: Homo sapiens, NCI-H716;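 also: growth inhibition of human NCI-H716 cells, measured by a cell viability assay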
Description: SANGER: Inhibition of human NCI-H716 cell growth in a cell viability assay.

OPM-2 = assay: cells; assay type: functional, cell-based, Homo sapiens; conditions: Homo sapiens, OPM-2;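 also: growth of OPM-2 cells measured with a viability assay, IC50 for suppression of proliferation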
Description: SANGER: Inhibition of human OPM-2 cell growth in a cell viability assay.

SK-MEL-28 = assay: cells; assay type: functional, cell-based, Homo sapiens; conditions: Homo sapiens, SK-MEL-28;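 also: growth inhibition of human SK-MEL-28 cells, read out with a cell viability assay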
Description: SANGER: Inhibition of human SK-MEL-28 cell growth in a cell viability assay.

SK-MES-1 = assay: cells; assay type: functional, cell-based, Homo sapiens; conditions: Homo sapiens, SK-MES-1;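 also: growth inhibition of human SK-MES-1 cells, read out with a cell viability assay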
Description: SANGER: Inhibition of human SK-MES-1 cell growth in a cell viability assay.

SK-MM-2 = assay: cells; assay type: functional, cell-based, Homo sapiens; conditions: Homo sapiens, SK-MM-2;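 also: growth inhibition of human SK-MM-2 cells, read out with a cell viability assay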
Description: SANGER: Inhibition of human SK-MM-2 cell growth in a cell viability assay.

SNU-C1 = assay: cells; assay type: functional, cell-based, Homo sapiens; conditions: Homo sapiens, SNU-C1;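 also: growth inhibition of SNU-C1 human cells, read out by a cell viability assay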
Description: SANGER: Inhibition of human SNU-C1 cell growth in a cell viability assay.

SW1573 = assay: cells; assay type: functional, cell-based, Homo sapiens; conditions: Homo sapiens, SW1573;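 also: growth inhibition of SW1573 cells, read out with a cell viability assay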
Description: SANGER: Inhibition of human SW1573 cell growth in a cell viability assay.

SW1783 = assay: cells; assay type: functional, cell-based, Homo sapiens; conditions: Homo sapiens, SW1783
Description: SANGER: Inhibition of human SW1783 cell growth in a cell viability assay.

SW626 = assay: cells; assay type: functional, cell-based, Homo sapiens; conditions: Homo sapiens, SW626;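 also: growth inhibition of SW626 cells, measured with a cell viability assay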
Description: SANGER: Inhibition of human SW626 cell growth in a cell viability assay.

T84 = assay: cells; assay type: functional, cell-based, Homo sapiens; conditions: Homo sapiens, T84;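 also: growth inhibition measured with a cell viability readout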
Description: SANGER: Inhibition of human T84 cell growth in a cell viability assay.

647-V = assay: cells; assay type: functional, cell-based, Homo sapiens; conditions: Homo sapiens, 647-V;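 also: growth inhibition of 647-V cells, read out with a cell viability assay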
Description: SANGER: Inhibition of human 647-V cell growth in a cell viability assay.

786-0 = assay: cells; assay type: functional, cell-based, Homo sapiens; conditions: Homo sapiens
Description: SANGER: Inhibition of human 786-0 cell growth in a cell viability assay.

8305C = assay: cells; assay type: functional, cell-based, Homo sapiens; conditions: Homo sapiens, 8305C
Description: SANGER: Inhibition of human 8305C cell growth in a cell viability assay.

TYK-nu = assay: cells; assay type: functional, cell-based, Homo sapiens; conditions: Homo sapiens, TYK-nu;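 also: growth inhibition of human TYK-nu cells, read out by a cell viability assay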
Description: SANGER: Inhibition of human TYK-nu cell growth in a cell viability assay.

UMC-11 = assay: cells; assay type: functional, cell-based, Homo sapiens; conditions: Homo sapiens, UMC-11;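 also: growth inhibition of UMC-11 cells, read out with a cell viability assay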
Description: SANGER: Inhibition of human UMC-11 cell growth in a cell viability assay.

VMRC-RCZ = assay: cells; assay type: functional, cell-based, Homo sapiens; conditions: Homo sapiens, VMRC-RCZ
Description: SANGER: Inhibition of human VMRC-RCZ cell growth in a cell viability assay.

WM-115 = assay: cells; assay type: functional, cell-based, Homo sapiens; conditions: Homo sapiens, WM-115
Description: SANGER: Inhibition of human WM-115 cell growth in a cell viability assay.

CAPAN-1 = assay: cells; assay type: functional, cell-based, Homo sapiens; conditions: Homo sapiens, CAPAN-1;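 also: growth suppression of CAPAN-1 cells, read out by a cell viability assay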
Description: SANGER: Inhibition of human CAPAN-1 cell growth in a cell viability assay.

CHL-1 = assay: cells; assay type: functional, cell-based, Homo sapiens; conditions: Homo sapiens, CHL-1;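 also: cell growth inhibition, read out with a cell viability assay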
Description: SANGER: Inhibition of human CHL-1 cell growth in a cell viability assay.

COLO-679 = assay: cells; assay type: functional, cell-based, Homo sapiens; conditions: Homo sapiens, COLO-679
Description: SANGER: Inhibition of human COLO-679 cell growth in a cell viability assay.

SMILES: C=C(c1ccc(C(=O)O)cc1)c1cc2c(cc1C)C(C)(C)CCC2(C)C [BEXAROTENE]
- IC50 (COLO-741): > 8 µM
- IC50 (Ca-Ski): > 8 µM
- IC50 (Detroit 562): > 8 µM
- IC50 (DoTc2-4510): > 8 µM
- IC50 (G-361): > 8 µM
- IC50 (GAMG): > 8 µM
- IC50 (HCC70): > 8 µM
- IC50 (HCT-15): > 8 µM
- IC50 (HPAF-II): > 8 µM
- IC50 (HSC-2): > 8 µM
- IC50 (KYSE-140): > 8 µM
- IC50 (L-540): > 8 µM
- IC50 (LN-405): > 8 µM
- IC50 (MDA-MB-415): > 8 µM
- IC50 (MFE-280): > 8 µM
- IC50 (MIA PaCa-2): > 8 µM
- IC50 (MeWo): > 8 µM
- IC50 (NCCIT): > 8 µM
- IC50 (NCI-H1694): > 8 µM
- IC50 (NCI-H1882): > 8 µM
- IC50 (NCI-H1963): > 8 µM
- IC50 (NCI-H2170): > 8 µM
- IC50 (NCI-H2228): > 8 µM
- IC50 (NCI-H520): > 8 µM
- IC50 (NCI-H524): > 8 µM
- IC50 (NCI-H596): > 8 µM
- IC50 (NCI-H650): > 8 µM
- IC50 (NCI-H716): > 8 µM
- IC50 (OPM-2): > 8 µM
- IC50 (SK-MEL-28): > 8 µM
- IC50 (SK-MES-1): > 8 µM
- IC50 (SK-MM-2): > 8 µM
- IC50 (SNU-C1): > 8 µM
- IC50 (SW1573): > 8 µM
- IC50 (SW1783): > 8 µM
- IC50 (SW626): > 8 µM
- IC50 (T84): > 8 µM
- IC50 (647-V): > 8 µM
- IC50 (786-0): > 8 µM
- IC50 (8305C): > 8 µM
- IC50 (TYK-nu): 7.11 µM
- IC50 (UMC-11): > 8 µM
- IC50 (VMRC-RCZ): > 8 µM
- IC50 (WM-115): > 8 µM
- IC50 (CAPAN-1): > 8 µM
- IC50 (CHL-1): > 8 µM
- IC50 (COLO-679): > 8 µM

SMILES: CCC/C=C/C=C/C(=O)O[C@H]1/C(=C/C(=O)OC)C[C@H]2C[C@H]([C@@H](C)O)OC(=O)C[C@H](O)C[C@@H]3C[C@H](OC(C)=O)C(C)(C)[C@](O)(C[C@@H]4C/C(=C/C(=O)OC)C[C@H](/C=C/C(C)(C)[C@]1(O)O2)O4)O3 [BRYOSTATIN 1]
- IC50 (COLO-741): > 0.008 µM
- IC50 (Ca-Ski): > 0.008 µM
- IC50 (Detroit 562): > 0.008 µM
- IC50 (DoTc2-4510): > 0.008 µM
- IC50 (G-361): > 0.008 µM
- IC50 (GAMG): > 0.008 µM
- IC50 (HCC70): > 0.008 µM
- IC50 (HCT-15): > 0.008 µM
- IC50 (HPAF-II): > 0.008 µM
- IC50 (HSC-2): > 0.008 µM
- IC50 (KYSE-140): > 0.008 µM
- IC50 (L-540): > 0.008 µM
- IC50 (LN-405): > 0.008 µM
- IC50 (MDA-MB-415): > 0.008 µM
- IC50 (MFE-280): > 0.008 µM
- IC50 (MIA PaCa-2): > 0.008 µM
- IC50 (MeWo): > 0.008 µM
- IC50 (NCCIT): > 0.008 µM
- IC50 (NCI-H1694): > 0.008 µM
- IC50 (NCI-H1882): > 0.008 µM
- IC50 (NCI-H1963): > 0.008 µM
- IC50 (NCI-H2170): > 0.008 µM
- IC50 (NCI-H2228): > 0.008 µM
- IC50 (NCI-H520): > 0.008 µM
- IC50 (NCI-H524): > 0.008 µM
- IC50 (NCI-H596): > 0.008 µM
- IC50 (NCI-H650): > 0.008 µM
- IC50 (NCI-H716): > 0.008 µM
- IC50 (OPM-2): > 0.008 µM
- IC50 (SK-MEL-28): > 0.008 µM
- IC50 (SK-MES-1): > 0.008 µM
- IC50 (SK-MM-2): > 0.008 µM
- IC50 (SNU-C1): > 0.008 µM
- IC50 (SW1573): > 0.008 µM
- IC50 (SW1783): > 0.008 µM
- IC50 (SW626): > 0.008 µM
- IC50 (T84): > 0.008 µM
- IC50 (647-V): > 0.008 µM
- IC50 (786-0): > 0.008 µM
- IC50 (8305C): > 0.008 µM
- IC50 (TYK-nu): > 0.008 µM
- IC50 (UMC-11): > 0.008 µM
- IC50 (VMRC-RCZ): > 0.008 µM
- IC50 (WM-115): > 0.008 µM
- IC50 (CAPAN-1): > 0.008 µM
- IC50 (CHL-1): > 0.008 µM
- IC50 (COLO-679): > 0.008 µM
